According to ChEMBL document CHEMBL5584238, “Psammaplin A analogues with modified disulfide bond targeting histone deacetylases: Synthesis and biological evaluation” (Eur J Med Chem, 2024):
Activity calls are given as the source filed them. No cut-off for these calls is given here.

What was measured:
[1] = system: HCT-116; assay: Antiproliferative activity against human HCT-116 cells incubated for 48 hrs by MTT assay; format: functional, cell-based; details: HCT-116, 48 h
[2] = system: HCT-116; assay: Induction of cell cycle arrest in human HCT-116 cells assessed as accumulation of cells at G2/M phase at 2 uM after 24 hrs by PI staining based flow cytometry analysis (reference value: 9.3%); format: functional
[3] = biological target: T1, Protein deacetylase HDAC6 (Homo sapiens) (UniProt Q9UBN7); assay: Inhibition of HDAC6 in human HCT-116 cells assessed as upregulation of acetylated alpha-tubulin level at 1 uM incubated for 24 hrs by Western blotting analysis; format: cell-based
T1 sequence (whole entry): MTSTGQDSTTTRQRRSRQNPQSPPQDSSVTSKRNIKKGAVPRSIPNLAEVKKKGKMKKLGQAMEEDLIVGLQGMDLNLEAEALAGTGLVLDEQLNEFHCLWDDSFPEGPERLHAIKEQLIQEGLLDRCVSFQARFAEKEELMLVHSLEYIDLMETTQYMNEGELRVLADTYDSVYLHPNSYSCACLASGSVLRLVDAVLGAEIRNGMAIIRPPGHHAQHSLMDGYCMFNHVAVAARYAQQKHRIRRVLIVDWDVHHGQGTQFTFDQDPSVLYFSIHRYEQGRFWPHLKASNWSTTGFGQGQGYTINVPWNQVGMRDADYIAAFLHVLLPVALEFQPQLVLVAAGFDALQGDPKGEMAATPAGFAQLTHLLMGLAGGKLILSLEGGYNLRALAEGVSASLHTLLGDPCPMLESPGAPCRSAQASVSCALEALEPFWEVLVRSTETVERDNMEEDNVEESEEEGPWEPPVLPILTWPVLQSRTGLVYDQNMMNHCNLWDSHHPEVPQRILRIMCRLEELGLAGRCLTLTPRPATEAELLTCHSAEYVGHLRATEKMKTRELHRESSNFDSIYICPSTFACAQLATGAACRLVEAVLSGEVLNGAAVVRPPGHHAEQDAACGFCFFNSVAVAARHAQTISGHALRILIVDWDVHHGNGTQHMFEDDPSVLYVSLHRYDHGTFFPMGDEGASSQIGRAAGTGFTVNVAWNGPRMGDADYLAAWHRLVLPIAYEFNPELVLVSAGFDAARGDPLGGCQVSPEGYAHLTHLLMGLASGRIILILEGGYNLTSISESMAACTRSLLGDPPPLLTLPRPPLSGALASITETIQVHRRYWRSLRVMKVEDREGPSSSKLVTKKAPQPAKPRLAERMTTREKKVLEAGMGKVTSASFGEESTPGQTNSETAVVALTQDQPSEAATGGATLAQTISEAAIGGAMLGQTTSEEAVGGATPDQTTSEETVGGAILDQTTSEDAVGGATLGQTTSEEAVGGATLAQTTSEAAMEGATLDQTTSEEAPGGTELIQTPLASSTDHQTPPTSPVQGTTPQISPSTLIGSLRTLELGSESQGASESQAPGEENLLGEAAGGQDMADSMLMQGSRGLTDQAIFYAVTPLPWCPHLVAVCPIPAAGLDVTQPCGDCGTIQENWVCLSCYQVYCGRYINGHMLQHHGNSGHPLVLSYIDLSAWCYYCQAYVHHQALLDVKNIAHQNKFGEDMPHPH

[4] = biological target: T2, Class 1 histone deacetylase (Homo sapiens) (UniProt Q13547+O15379+Q92769+Q9BY41); assay: Inhibition of class 1 HDACs in human HCT-116 cells assessed as upregulation of acetylated alpha-H3 level at 1 uM incubated for 24 hrs by Western blotting analysis; format: cell-based
T2 sequence (O15379 whole entry, looked up): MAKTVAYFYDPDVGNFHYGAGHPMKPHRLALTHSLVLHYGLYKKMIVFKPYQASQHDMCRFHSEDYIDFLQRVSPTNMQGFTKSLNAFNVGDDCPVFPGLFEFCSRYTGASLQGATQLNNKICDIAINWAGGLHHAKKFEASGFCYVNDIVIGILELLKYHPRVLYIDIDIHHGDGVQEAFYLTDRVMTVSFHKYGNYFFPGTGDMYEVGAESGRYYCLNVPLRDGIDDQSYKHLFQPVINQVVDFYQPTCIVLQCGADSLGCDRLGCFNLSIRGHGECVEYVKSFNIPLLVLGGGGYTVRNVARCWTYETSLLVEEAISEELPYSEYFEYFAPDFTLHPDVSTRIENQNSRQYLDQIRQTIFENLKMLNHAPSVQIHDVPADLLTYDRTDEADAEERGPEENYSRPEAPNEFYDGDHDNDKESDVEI
T2 sequence (Q13547 whole entry, looked up): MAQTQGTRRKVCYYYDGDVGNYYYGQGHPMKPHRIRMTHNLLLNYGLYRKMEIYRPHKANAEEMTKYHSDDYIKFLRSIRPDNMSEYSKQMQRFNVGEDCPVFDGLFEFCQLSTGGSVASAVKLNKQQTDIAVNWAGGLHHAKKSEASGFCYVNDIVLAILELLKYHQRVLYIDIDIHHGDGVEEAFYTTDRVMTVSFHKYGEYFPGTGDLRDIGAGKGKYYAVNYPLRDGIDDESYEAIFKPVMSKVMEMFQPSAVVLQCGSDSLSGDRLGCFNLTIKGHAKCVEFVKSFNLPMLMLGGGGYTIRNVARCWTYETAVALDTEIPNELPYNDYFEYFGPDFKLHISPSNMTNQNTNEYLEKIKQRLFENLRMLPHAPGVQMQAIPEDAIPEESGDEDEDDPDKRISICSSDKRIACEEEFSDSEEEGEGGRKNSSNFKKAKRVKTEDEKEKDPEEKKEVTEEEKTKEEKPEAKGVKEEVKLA
T2 sequence (Q92769 whole entry, looked up): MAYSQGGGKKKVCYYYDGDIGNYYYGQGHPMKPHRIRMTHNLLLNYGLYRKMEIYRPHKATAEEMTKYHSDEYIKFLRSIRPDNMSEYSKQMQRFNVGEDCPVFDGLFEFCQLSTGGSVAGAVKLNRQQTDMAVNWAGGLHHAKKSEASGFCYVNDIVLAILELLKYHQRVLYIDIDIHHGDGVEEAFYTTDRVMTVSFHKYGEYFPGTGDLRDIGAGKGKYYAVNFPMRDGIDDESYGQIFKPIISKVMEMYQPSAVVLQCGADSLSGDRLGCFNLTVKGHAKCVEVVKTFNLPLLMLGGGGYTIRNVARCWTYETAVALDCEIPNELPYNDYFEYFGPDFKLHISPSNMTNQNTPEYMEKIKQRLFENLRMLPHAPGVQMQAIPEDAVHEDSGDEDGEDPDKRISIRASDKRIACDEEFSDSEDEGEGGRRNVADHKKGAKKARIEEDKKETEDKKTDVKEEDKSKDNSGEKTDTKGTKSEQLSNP
T2 sequence (Q9BY41 whole entry, looked up): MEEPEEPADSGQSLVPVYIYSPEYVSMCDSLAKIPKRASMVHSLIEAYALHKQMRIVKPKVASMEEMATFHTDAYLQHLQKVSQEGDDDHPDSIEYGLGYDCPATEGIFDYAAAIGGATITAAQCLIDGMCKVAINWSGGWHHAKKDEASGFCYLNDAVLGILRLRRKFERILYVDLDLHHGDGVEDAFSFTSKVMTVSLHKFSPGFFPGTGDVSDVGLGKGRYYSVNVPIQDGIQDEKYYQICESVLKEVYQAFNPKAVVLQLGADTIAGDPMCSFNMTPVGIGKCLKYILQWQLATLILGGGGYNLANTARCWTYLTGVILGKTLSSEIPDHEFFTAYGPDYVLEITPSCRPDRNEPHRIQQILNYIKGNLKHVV

[5] = system: HCT-116; assay: Induction of cell cycle arrest in human HCT-116 cells assessed as accumulation of cells at G1 phase at 2 uM after 24 hrs by PI staining based flow cytometry analysis (reference value: 37.9%); format: functional
[6] = system: HCT-116; assay: Induction of apoptosis in human HCT-116 cells assessed as necrotic cells at 2 uM incubated for 24 hrs by Annexin V-FITC/PI staining based flow cytometry analysis ( Rvb = 0.24%); format: functional
[7] = system: HCT-116; assay: Induction of apoptosis in human HCT-116 cells assessed as late apoptotic cells at 2 uM incubated for 24 hrs by Annexin V-FITC/PI staining based flow cytometry analysis ( Rvb = 5.32%); format: functional
[8] = system: HCT-116; assay: Antitumor activity against human HCT-116 cells xenografted with BALB/c nude mouse assessed as tumor growth inhibition at 10 mg/kg, ip administered every 2 days for 26 days; format: functional; details: HCT-116, 624 h, time 26 day, read-out: TGI
[9] = system: HCT-116; assay: Induction of apoptosis in human HCT-116 cells assessed as early apoptotic cells at 2 uM incubated for 24 hrs by Annexin V-FITC/PI staining based flow cytometry analysis ( Rvb = 2.36%); format: functional
[10] = system: HCT-116; assay: Induction of cell cycle arrest in human HCT-116 cells assessed as accumulation of cells at G2/M phase at 1 uM after 24 hrs by PI staining based flow cytometry analysis (reference value: 9.3%); format: functional
[11] = biological target: Histone deacetylase 1 (Homo sapiens, UniProt Q13547); assay: Inhibition of recombinant human HDAC1 using Boc-Lys(Ac)-AMC as substrate preincubated for 1 hr followed by substrate addition and measured after 2 hrs by microplate reader assay
Histone deacetylase 1, sequence (Q13547 whole entry): as the sequence (Q13547 whole entry, looked up) above

[12] = system: HCT-116; assay: Induction of cell cycle arrest in human HCT-116 cells assessed as accumulation of cells at G1 phase at 1 uM after 24 hrs by PI staining based flow cytometry analysis (reference value: 37.9%); format: functional
[13] = system: HCT-116; assay: Induction of apoptosis in human HCT-116 cells assessed as viable cells at 4 uM incubated for 24 hrs by Annexin V-FITC/PI staining based flow cytometry analysis ( Rvb = 92.2%); format: functional; details: read-out: Activity
[14] = system: HCT-116; assay: Induction of apoptosis in human HCT-116 cells assessed as early apoptotic cells at 4 uM incubated for 24 hrs by Annexin V-FITC/PI staining based flow cytometry analysis ( Rvb = 2.36%); format: functional
[15] = system: HCT-116; assay: Induction of cell cycle arrest in human HCT-116 cells assessed as accumulation of cells at S phase at 1 uM after 24 hrs by PI staining based flow cytometry analysis (reference value: 52.8%); format: functional
[16] = system: HCT-116; assay: Induction of cell cycle arrest in human HCT-116 cells assessed as accumulation of cells at S phase at 2 uM after 24 hrs by PI staining based flow cytometry analysis (reference value: 52.8%); format: functional
[17] = system: HCT-116; assay: Induction of apoptosis in human HCT-116 cells assessed as necrotic cells at 4 uM incubated for 24 hrs by Annexin V-FITC/PI staining based flow cytometry analysis ( Rvb = 0.24%); format: functional
[18] = system: HCT-116; assay: Induction of apoptosis in human HCT-116 cells assessed as late apoptotic cells at 4 uM incubated for 24 hrs by Annexin V-FITC/PI staining based flow cytometry analysis ( Rvb = 5.32%); format: functional
[19] = system: HCT-116; assay: Induction of apoptosis in human HCT-116 cells assessed as viable cells at 2 uM incubated for 24 hrs by Annexin V-FITC/PI staining based flow cytometry analysis ( Rvb = 92.2%); format: functional; details: read-out: Activity
[20] = system: HCT-116; assay: Induction of cell cycle arrest in human HCT-116 cells assessed as accumulation of cells at G2/M phase at 0.4 uM after 24 hrs by PI staining based flow cytometry analysis (reference value: 9.3%); format: functional
[21] = system: HCT-116; assay: Induction of apoptosis in human HCT-116 cells assessed as early apoptotic cells at 0.2 uM incubated for 24 hrs by Annexin V-FITC/PI staining based flow cytometry analysis ( Rvb = 2.36%); format: functional
[22] = system: HCT-116; assay: Induction of cell cycle arrest in human HCT-116 cells assessed as accumulation of cells at G1 phase at 0.4 uM after 24 hrs by PI staining based flow cytometry analysis (reference value: 37.9%); format: functional
[23] = system: HCT-116; assay: Induction of apoptosis in human HCT-116 cells assessed as early apoptotic cells at 0.4 uM incubated for 24 hrs by Annexin V-FITC/PI staining based flow cytometry analysis ( Rvb = 2.36%); format: functional
[24] = system: HCT-116; assay: Induction of cell cycle arrest in human HCT-116 cells assessed as accumulation of cells at S phase at 0.4 uM after 24 hrs by PI staining based flow cytometry analysis (reference value: 52.8%); format: functional
[25] = system: HCT-116; assay: Induction of cell cycle arrest in human HCT-116 cells assessed as accumulation of cells at G1 phase at 0.2 uM after 24 hrs by PI staining based flow cytometry analysis (reference value: 37.9%); format: functional
[26] = system: NCI-H1581; assay: Antiproliferative activity against human NCI-H1581 cells incubated for 48 hrs by MTT assay; format: functional, cell-based; details: NCI-H1581, 48 h
[27] = system: HCT-116; assay: Induction of cell cycle arrest in human HCT-116 cells assessed as accumulation of cells at G1 phase at 0.1 uM after 24 hrs by PI staining based flow cytometry analysis (reference value: 37.9%); format: functional
[28] = biological target: T2, Class 1 histone deacetylase (Homo sapiens); assay: Inhibition of class 1 HDACs in human HCT-116 cells assessed as upregulation of acetylated alpha-H3 level incubated for 24 hrs by Western blotting analysis; format: cell-based; details: dose 0.5-4 µM
[29] = system: HCT-116; assay: Induction of cell cycle arrest in human HCT-116 cells assessed as accumulation of cells at G2/M phase at 0.2 uM after 24 hrs by PI staining based flow cytometry analysis (reference value: 9.3%); format: functional
[30] = system: HCT-116; assay: Induction of apoptosis in human HCT-116 cells assessed as late apoptotic cells at 0.4 uM incubated for 24 hrs by Annexin V-FITC/PI staining based flow cytometry analysis ( Rvb = 5.32%); format: functional
[31] = biological target: T1, Protein deacetylase HDAC6 (Homo sapiens); assay: Inhibition of HDAC6 in human HCT-116 cells assessed as upregulation of acetylated alpha-tubulin level incubated for 24 hrs by Western blotting analysis; format: cell-based; details: dose 0.5-4 µM
[32] = system: HCT-116; assay: Induction of cell cycle arrest in human HCT-116 cells assessed as accumulation of cells at S phase at 0.2 uM after 24 hrs by PI staining based flow cytometry analysis (reference value: 52.8%); format: functional
[33] = system: EBC-1; assay: Antiproliferative activity against human EBC-1 cells incubated for 48 hrs by MTT assay; format: functional, cell-based; details: EBC-1, 48 h
[34] = system: HCT-116; assay: Induction of apoptosis in human HCT-116 cells assessed as viable cells at 0.4 uM incubated for 24 hrs by Annexin V-FITC/PI staining based flow cytometry analysis ( Rvb = 92.2%); format: functional; details: read-out: Activity
[35] = system: HCT-116; assay: Induction of cell cycle arrest in human HCT-116 cells assessed as accumulation of cells at S phase at 0.1 uM after 24 hrs by PI staining based flow cytometry analysis (reference value: 52.8%); format: functional
[36] = system: HCT-116; assay: Induction of apoptosis in human HCT-116 cells assessed as viable cells at 0.2 uM incubated for 24 hrs by Annexin V-FITC/PI staining based flow cytometry analysis ( Rvb = 92.2%); format: functional; details: read-out: Activity
[37] = system: HCT-116; assay: Induction of apoptosis in human HCT-116 cells assessed as necrotic cells at 0.2 uM incubated for 24 hrs by Annexin V-FITC/PI staining based flow cytometry analysis ( Rvb = 0.24%); format: functional
[38] = system: HCT-116; assay: Induction of apoptosis in human HCT-116 cells assessed as necrotic cells at 0.4 uM incubated for 24 hrs by Annexin V-FITC/PI staining based flow cytometry analysis ( Rvb = 0.24%); format: functional
[39] = system: HCT-116; assay: Induction of cell cycle arrest in human HCT-116 cells assessed as accumulation of cells at G2/M phase at 0.1 uM after 24 hrs by PI staining based flow cytometry analysis (reference value: 9.3%); format: functional
[40] = system: HCT-116; assay: Induction of apoptosis in human HCT-116 cells assessed as late apoptotic cells at 0.2 uM incubated for 24 hrs by Annexin V-FITC/PI staining based flow cytometry analysis ( Rvb = 5.32%); format: functional

O=C(NCCSSCCNC(=O)/C(Cc1ccc(O)c(Br)c1)=N/O)/C(Cc1ccc(O)c(Br)c1)=N/O [PSAMMAPLIN A]
IC50 [1]: 3050 nM | Activity [2]: 16.09% | inhibition [3]: inactive | inhibition [4]: Active | Activity [5]: 55.34% | Activity [6]: 0.67% | Activity [7]: 14.8% | inhibition in vivo at 10 mg/kg [8]: 36.1% | Activity [9]: 9.74% | Activity [10]: 13.05% | IC50 [11]: 26 nM | Activity [12]: 45.72% | viability at 4 µM [13]: 42.5% | Activity [14]: 16.2% | Activity [15]: 41.24% | Activity [16]: 28.56% | Activity [17]: 1.06% | Activity [18]: 40.3% | viability at 2 µM [19]: 74.8%

O=C(NCC[Se][Se]CCNC(=O)/C(Cc1ccc(Br)o1)=N/O)/C(Cc1ccc(Br)o1)=N/O
Activity [20]: 19.11% | IC50 [1]: 290 nM | Activity [21]: 11.4% | Activity [22]: 56.35% | Activity [23]: 17.8% | inhibition [3]: Active | inhibition [4]: Active | Activity [24]: 24.54% | Activity [25]: 51.33% | IC50 [26]: 480 nM | Activity [27]: 35.83% | inhibition [28]: Dose-Dependent Effect | Activity [29]: 17.28% | Activity [30]: 11.9% | inhibition [31]: Dose-Dependent Effect | Activity [32]: 31.39% | IC50 [33]: 620 nM | viability at 0.4 µM [34]: 70.3% | Activity [35]: 45.66% | viability at 0.2 µM [36]: 80.6% | Activity [37]: 0.001% | Activity [38]: 0% | Activity [39]: 18.51% | Activity [40]: 18.2%
